{"source": "paper PMC5488202", "test": "Ring-closing metathesis (C=C formation) of fluorous-tagged (FDIPES) terminal dienes with Hoveyda-Grubbs 2nd generation catalyst (typically 2 mol%, 1-5 mol%), usually with 1,4-benzoquinone (4-10 mol%); quench P(CH2OH)3/Et3N/silica", "conditions": "MTBE, 2.0 mM, 55.0 °C", "data": [{"molecule": "COc1ccc([C@H]2COCC=CC[C@H](CO[Si](CCC(F)(F)C(F)(F)C(F)(F)C(F)(F)C(F)(F)C(F)(F)C(F)(F)C(F)(F)F)(C(C)C)C(C)C)N(S(=O)(=O)c3ccccc3[N+](=O)[O-])CC3=CC=C(CN(S(=O)(=O)c4ccccc4[N+](=O)[O-])C(=O)OC2)S3)c(OC)c1", "note": "[21 (15+9, from 20; 2 steps RCM + denosylation; E/Z 65:35)]", "values": [{"measurement": "ring closure, isolated yield", "setting": "from C=CCOC[C@@H](COC(=O)N(Cc1ccc(CN([C@H](CC=C)CO[Si](CCC(F)(F)C(F)(F)C(F)(F)C(F)(F)C(F)(F)C(F)(F)C(F)(F)C(F)(F)F)(C(C)C)C(C)C)S(=O)(=O)c2ccccc2[N+](=O)[O-])s1)S(=O)(=O)c1ccccc1[N+](=O)[O-])c1ccc(OC)cc1OC, 18-membered ring, 24.0 h", "result": 34, "unit": "%"}]}, {"molecule": "COc1ccc([C@H]2COCC=CC[C@H](CO[Si](CCC(F)(F)C(F)(F)C(F)(F)C(F)(F)C(F)(F)C(F)(F)C(F)(F)C(F)(F)F)(C(C)C)C(C)C)N(S(=O)(=O)c3ccccc3[N+](=O)[O-])Cc3ccccc3CN(S(=O)(=O)c3ccccc3[N+](=O)[O-])C(=O)OC2)c(OC)c1", "note": "[24 (13+9; 2 steps RCM + denosylation; E/Z 60:40)]", "values": [{"measurement": "ring closure, isolated yield", "setting": "from C=CCOC[C@@H](COC(=O)N(Cc1ccccc1CN([C@H](CC=C)CO[Si](CCC(F)(F)C(F)(F)C(F)(F)C(F)(F)C(F)(F)C(F)(F)C(F)(F)C(F)(F)F)(C(C)C)C(C)C)S(=O)(=O)c1ccccc1[N+](=O)[O-])S(=O)(=O)c1ccccc1[N+](=O)[O-])c1ccc(OC)cc1OC, 17-membered ring, 24.0 h", "result": 33, "unit": "%"}]}, {"molecule": "CC(C)[Si](CCC(F)(F)C(F)(F)C(F)(F)C(F)(F)C(F)(F)C(F)(F)C(F)(F)C(F)(F)F)(OC[C@@H]1COCC=CCCN(S(=O)(=O)C(F)(F)F)Cc2ccccc2CN1S(=O)(=O)c1ccccc1[N+](=O)[O-])C(C)C", "note": "[35 (16+12; E/Z 70:30)]", "values": [{"measurement": "ring closure, isolated yield", "setting": "from C=CCCN(Cc1ccccc1CN([C@@H](COCC=C)CO[Si](CCC(F)(F)C(F)(F)C(F)(F)C(F)(F)C(F)(F)C(F)(F)C(F)(F)C(F)(F)F)(C(C)C)C(C)C)S(=O)(=O)c1ccccc1[N+](=O)[O-])S(=O)(=O)C(F)(F)F, 14-membered ring, 36.0 h", "result": 98, "unit": "%"}]}, {"molecule": "CC(C)[Si](CCC(F)(F)C(F)(F)C(F)(F)C(F)(F)C(F)(F)C(F)(F)C(F)(F)C(F)(F)F)(OC[C@H]1CC=CCC[C@@H](O[Si](C)(C)C(C)(C)C)[C@H](C)C(=O)N(S(=O)(=O)c2ccccc2[N+](=O)[O-])CC2=CC=C(CN1S(=O)(=O)c1ccccc1[N+](=O)[O-])S2)C(C)C", "note": "[3 (from 2; E/Z 65:35)]", "values": [{"measurement": "ring closure, isolated yield", "setting": "from C=CCC[C@@H](O[Si](C)(C)C(C)(C)C)[C@H](C)C(=O)N(Cc1ccc(CN([C@H](CC=C)CO[Si](CCC(F)(F)C(F)(F)C(F)(F)C(F)(F)C(F)(F)C(F)(F)C(F)(F)C(F)(F)F)(C(C)C)C(C)C)S(=O)(=O)c2ccccc2[N+](=O)[O-])s1)S(=O)(=O)c1ccccc1[N+](=O)[O-], 16-membered ring, 16.0 h", "result": 40, "unit": "%"}]}, {"molecule": "COc1ccc([C@H]2COCC=CC[C@H](CO[Si](CCC(F)(F)C(F)(F)C(F)(F)C(F)(F)C(F)(F)C(F)(F)C(F)(F)C(F)(F)F)(C(C)C)C(C)C)N(S(=O)(=O)c3ccccc3[N+](=O)[O-])Cc3cccc(c3)CN(S(=O)(=O)c3ccccc3[N+](=O)[O-])C(=O)OC2)c(OC)c1", "note": "[27 (14+9; E/Z 60:40)]", "values": [{"measurement": "ring closure, isolated yield", "setting": "from C=CCOC[C@@H](COC(=O)N(Cc1cccc(CN([C@H](CC=C)CO[Si](CCC(F)(F)C(F)(F)C(F)(F)C(F)(F)C(F)(F)C(F)(F)C(F)(F)C(F)(F)F)(C(C)C)C(C)C)S(=O)(=O)c2ccccc2[N+](=O)[O-])c1)S(=O)(=O)c1ccccc1[N+](=O)[O-])c1ccc(OC)cc1OC, 18-membered ring, 24.0 h", "result": 56, "unit": "%"}]}]}
